Assay results published in ChEMBL document CHEMBL4433235, “Discovery of piperazic acid peptide deformylase inhibitors with in vivo activity for respiratory tract and skin infections” (Bioorg Med Chem Lett, 2019).
Converted amounts (≈) assume the structure as drawn.

Legend:
Peptide deformylase [1] = molecular target: T1, Peptide deformylase (Staphylococcus aureus, UniProt P68826); experiment: Inhibition of Staphylococcus aureus PDF by absorbance detection assay
T1 sequence (P68826 whole entry): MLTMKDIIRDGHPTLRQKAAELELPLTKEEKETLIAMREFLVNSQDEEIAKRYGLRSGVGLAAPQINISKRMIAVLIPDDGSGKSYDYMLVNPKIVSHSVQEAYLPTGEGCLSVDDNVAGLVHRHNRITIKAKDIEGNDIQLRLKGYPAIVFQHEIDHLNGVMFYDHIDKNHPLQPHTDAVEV

[2] = Inhibition of Haemophilus influenzae PDF by absorbance detection assay
[3] = Inhibition of Streptococcus pneumoniae PDF by absorbance detection assay
Staphylococcus aureus [4] = experiment: Antimicrobial activity against Staphylococcus aureus Oxford; type: functional
Haemophilus influenzae [5] = experiment: Antimicrobial activity against Haemophilus influenzae Q1; type: functional
Streptococcus pneumoniae [6] = experiment: Antimicrobial activity against Streptococcus pneumoniae 1629; type: functional
[7] = Chromatographic hydrophobicity index, log D of compound at pH 7.4; type: physicochemical; conditions: buffer
[8] = Solubility of compound by chemiluminescent nitrogen detection assay; type: physicochemical
Staphylococcus aureus [9] = experiment: Antimicrobial activity against Staphylococcus aureus; type: functional
Haemophilus influenzae [10] = experiment: Antimicrobial activity against Haemophilus influenzae; type: functional
Streptococcus pneumoniae [11] = experiment: Antimicrobial activity against Streptococcus pneumoniae; type: functional
Peptide deformylase [12] = molecular target: T1, Peptide deformylase; experiment: Inhibition of Staphylococcus aureus PDF by fluorescence detection assay
[13] = Inhibition of Haemophilus influenzae PDF by fluorescence detection assay
[14] = Inhibition of Streptococcus pneumoniae PDF by fluorescence detection assay

| Compound | IC50 (Peptide deformylase [1]) [nM] | IC50 [2] [nM] | IC50 [3] [nM] | MIC (Staphylococcus aureus [4]) [µg/mL] | MIC (Haemophilus influenzae [5]) [µg/mL] | MIC (Streptococcus pneumoniae [6]) [µg/mL] | CHI [7] | solubility kinetic [8] [µM] | MIC90 (Staphylococcus aureus [9]) [µg/mL] | MIC90 (Haemophilus influenzae [10]) [µg/mL] | MIC90 (Streptococcus pneumoniae [11]) [µg/mL] | IC50 (Peptide deformylase [12]) [nM] | IC50 [13] [nM] | IC50 [14] [nM] |
| --- | --- | --- | --- | --- | --- | --- | --- | --- | --- | --- | --- | --- | --- | --- |
| O=CN(O)C[C@@H](CC1CCCC1)C(=O)N1NCCC[C@H]1C(=O)Nc1ccncn1 | 2 | 6 | 0.3 | 2 (≈ 4.94 µM) | 1 (≈ 2.47 µM) | 2 (≈ 4.94 µM) | 2.7 | > 464 | 1 (≈ 2.47 µM) | 2 (≈ 4.94 µM) | 2 (≈ 4.94 µM) |  |  |  |
| Cc1cccnc1NC(=O)[C@@H]1CCCNN1C(=O)[C@H](CC1CCCC1)CN(O)C=O |  |  |  | 8 (≈ 19.2 µM) | 2 (≈ 4.79 µM) | 8 (≈ 19.2 µM) | 2.94 | 483 (≈ 202 µg/mL) |  |  |  | 16 | 79 | 10 |
| O=CN(O)C[C@@H](CC1CCCC1)C(=O)N1NCCC[C@H]1C(=O)Nc1ccccc1 | 5 | 2 | 1 | 4 (≈ 9.94 µM) | 1 (≈ 2.48 µM) | 2 (≈ 4.97 µM) | 4.82 | > 534 |  |  |  |  |  |  |
| O=CN(O)C[C@@H](CC1CCCC1)C(=O)N1NCCC[C@H]1C(=O)N1CCCCC1 | 6 | 8 | 2 | 1 (≈ 2.53 µM) | 2 (≈ 5.07 µM) | 4 (≈ 10.1 µM) | 3.3 | > 739 |  |  |  |  |  |  |
| CCCNC(=O)[C@@H]1CCCNN1C(=O)[C@H](CC1CCCC1)CN(O)C=O | 11 | 5 | 3 | 4 (≈ 10.9 µM) | 0.5 (≈ 1.36 µM) | 4 (≈ 10.9 µM) | 3.19 | > 544 |  |  |  |  |  |  |
| O=CN(O)C[C@@H](CC1CCCC1)C(=O)N1NCCC[C@H]1C(=O)Nc1cccnn1 | 2 | 4 | 0.6 | 1 (≈ 2.47 µM) | 0.5 (≈ 1.24 µM) | 4 (≈ 9.89 µM) | 2.69 | 303 (≈ 123 µg/mL) |  |  |  |  |  |  |
| CN1CCN(c2cncc(NC(=O)[C@@H]3CCCNN3C(=O)[C@H](CC3CCCC3)CN(O)C=O)n2)CC1 |  |  |  | 16 (≈ 31.8 µM) | 2 (≈ 3.98 µM) | 4 (≈ 7.96 µM) | 2.57 | > 359 |  |  |  | 10 |  | 2 |
| O=CN(O)C[C@@H](CC1CCCC1)C(=O)N1NCCC[C@H]1C(=O)Nc1cnccn1 | 1 | 3 | 0.3 | 2 (≈ 4.94 µM) | 0.25 (≈ 0.618 µM) | 8 (≈ 19.8 µM) | 2.87 | > 586 |  |  |  |  |  |  |
| O=CN(O)C[C@@H](CC1CCCC1)C(=O)N1NCCC[C@H]1C(=O)Nc1ccccn1 | 2 | 3 | 1 | 0.5 (≈ 1.24 µM) | 0.5 (≈ 1.24 µM) | 1 (≈ 2.48 µM) | 3.71 | > 463 |  |  |  |  |  |  |
| CN(C(=O)[C@@H]1CCCNN1C(=O)[C@H](CC1CCCC1)CN(O)C=O)c1ccccn1 | 18 | 15 | 8 | 4 (≈ 9.58 µM) | 4 (≈ 9.58 µM) | 2 (≈ 4.79 µM) | 3.3 | > 657 |  |  |  |  |  |  |
| O=CN(O)C[C@@H](CC1CCCC1)C(=O)N1NCCC[C@H]1C(=O)Nc1cccc2c1COB2O |  |  |  | 2 (≈ 4.36 µM) | 0.5 (≈ 1.09 µM) | 8 (≈ 17.5 µM) | 3.2 | > 544 |  |  |  | 158 | 79 | 40 |
| Cc1ccc(NC(=O)[C@@H]2CCCNN2C(=O)[C@H](CC2CCCC2)CN(O)C=O)nc1 |  |  |  | 1 (≈ 2.4 µM) | 1 (≈ 2.4 µM) | 2 (≈ 4.79 µM) | 4.1 | > 565 | 1 (≈ 2.4 µM) | 4 (≈ 9.58 µM) | 2 (≈ 4.79 µM) | 2 | 25 | 0.6 |
| CN(C)c1cccc(NC(=O)[C@@H]2CCCNN2C(=O)[C@H](CC2CCCC2)CN(O)C=O)n1 |  |  |  | 4 (≈ 8.96 µM) | 4 (≈ 8.96 µM) | 0.5 (≈ 1.12 µM) | 4.88 | > 364 |  |  |  | 20 | 32 | 8 |
| Cc1ccnc(NC(=O)[C@@H]2CCCNN2C(=O)[C@H](CC2CCCC2)CN(O)C=O)c1 |  |  |  | 1 (≈ 2.4 µM) | 2 (≈ 4.79 µM) | 2 (≈ 4.79 µM) | 4.05 | > 565 | 1 (≈ 2.4 µM) | 4 (≈ 9.58 µM) | 1 (≈ 2.4 µM) | 2 | 40 | 0.4 |
| CN1CCN(c2cc(NC(=O)[C@@H]3CCCNN3C(=O)[C@H](CC3CCCC3)CN(O)C=O)ncn2)CC1 |  |  |  | 0.5 (≈ 0.995 µM) | 2 (≈ 3.98 µM) | 0.25 (≈ 0.497 µM) | 2.7 | > 573 | 0.5 (≈ 0.995 µM) | 2 (≈ 3.98 µM) | 0.25 (≈ 0.497 µM) | 3 | 25 | 1 |
| O=CN(O)C[C@@H](CC1CCCC1)C(=O)N1NCCC[C@H]1C(=O)Nc1ccc(F)cn1 | 2 |  | 0.6 | 0.5 (≈ 1.19 µM) | 0.5 (≈ 1.19 µM) | 1 (≈ 2.37 µM) | 4.13 | > 739 | 1 (≈ 2.37 µM) | 2 (≈ 4.75 µM) | 2 (≈ 4.75 µM) |  |  |  |
| CN(C)c1cc(NC(=O)[C@@H]2CCCNN2C(=O)[C@H](CC2CCCC2)CN(O)C=O)ncn1 |  |  |  | 0.5 (≈ 1.12 µM) | 2 (≈ 4.47 µM) | 0.5 (≈ 1.12 µM) | 3.38 | > 649 |  |  |  | 1 | 13 | 0.3 |
